US11938121B2, “Treatment of infections and biofilm formation using a cellulose synthase inhibitor” (Purdue Research Foundation, priority 2020, dated 2024)

Biological target: T1, GFP-CESA6c^P595S (Arabidopsis thaliana, UniProt Q94JQ6, P595S)
T1 construct: We purified AtCESA6 central cytoplasmic domain carrying missense mutation P595S (CESA6c^P595S); made in house; host or cells: E. coli (inferred from the wild-type CESA6c construct that served as template)
Experiment: MST assay with GFP-CESA6c^P595S
Assay type: binding
Text: To obtain the central cytosolic domain of AtCESA6 for the MST assay, we inserted the GFP coding sequence into the SacI and PstI restriction enzyme sites of the pRSF-Duet-1 vector (Huang et al., 2020). The GFP coding sequence was amplified from the pUBN-GFP-DEST vector. The sequence encoding the central cytosolic domain of CESA6 (CESA6c) was amplified from Col-0 cDNA and fused with GFP at the C-terminus. CESA6c construct was used as a template for creating CESA6c^P595S construct by site-directed mutagenesis. Protein purification was performed as previously described (Huang et al., 2020).
MST assays were carried out using a Monolith NT.115 (NanoTemper) machine at the Chemical Genomics Facility at Purdue University. […] The ES20-1 was dissolved in DMSO, and the final concentration of DMSO was 5% (vol/vol). MST standard capillaries were used to load the samples into the MST instrument. Triplicate reactions were performed for each test. The MST data were processed using MO. Affinity Analysis Version 2.3 software.

Cc1ccccc1C(=O)NNC(=S)NC(=O)c1ccccc1 [ES20-1]
interaction with CESA6c^P595S: interacts
